These results are taken from ChEMBL document CHEMBL1136479, “DAPI derivative: a fluorescent DNA dye that can be covalently attached to biomolecules” (Bioorg Med Chem Lett, 2003).

Values joined by “and” are separate entries in the source; they are usually repeats but may differ in a detail not shown here. Equal entries are not always repeated.

Experiment [1] can be described thus: The background fluorescence was measured in TE buffer in the presence of calf thymus DNA (4 ug/mL) at a molar ratio of 4000:1 (Compound:DNA).
The nature of experiment [2]: The background fluorescence was measured in TE buffer in the presence of calf thymus DNA (4 ug/mL) at a molar ratio of 8000:1 (Compound:DNA).
Experiment [3] is described as follows: The background fluorescence was measured in TE buffer in the absence of DNA.
The nature of experiment [4]: Enhancement in fluorescence intensity was calculated as fluorescence intensity in presence of DNA/fluorescence intensity in absence of DNA.
Experiment [5] is described as follows: The background fluorescence was measured in TE buffer in the presence of calf thymus DNA (4 ug/mL) at a molar ratio of 2000:1 (Compound:DNA).
Experiment [6] is described as follows: The background fluorescence was measured in TE buffer in the presence of calf thymus DNA (4 ug/mL) at a molar ratio of 1000:1 (Compound:DNA).

Regarding `N=C(N)c1ccc(-c2[nH]c3cc(C(=N)N)ccc3c2Cc2cc([N+](=O)[O-])ccc2O)cc1`, the Fluorescence intensity in experiment [1] was 94.8; in experiment [2], 86.7; in experiment [3], 25.3 and 15.7 and 9.8; in experiment [5], 75. Besides, the Enhancement in experiment [4] is 3.4 and 6 and 7.7.
For `N=C(N)c1ccc(-c2cc3ccc(C(=N)N)cc3[nH]2)cc1`, the Fluorescence intensity in experiment [1] was determined as 236; in experiment [2], 295; in experiment [5] it was 214; in experiment [6] it was 179.
